Results on 16 molecules are retold here after patent US11957683B2, “Bicyclic compounds” (Aligos Therapeutics, Inc., priority 2021, dated 2024).

In data set [1] the test system is HBV. Description: HBV-DNA antiviral assay using HepG2.117 cells. Format: cell-based, HBV genotype D. The method, then: (§1) The following assay procedure describes the HBV antiviral assay, using HepG2.117 cells, which carry a stably integrated genotype D HBV genome under the control of a Tet-off promoter, and intracellular HBV DNA quantification as endpoint. Cell viability is assessed in parallel by measuring the intracellular ATP content using CellTiter-Glo 2.0 (Promega).
On day 0, HepG2.117 cells (which are maintained in routine cell culture with doxycycline present in the medium at a final concentration of 1 μg/mL) are seeded in 96-well plates (white with clear bottom) at a density of 2.0×10^4 cells/well (0.1 mL/well) in medium without doxycycline to induce pgRNA transcription and subsequent formation of HBV particles. The cells are incubated at 37° C. and 5% CO2.
(§2) On day 1, medium is removed from each well, the test articles are diluted in culture medium without doxcycyline and 100 μL was added to cell culture wells (9 concentrations, 4-fold dilution). For each plate, 6 untreated (merely DMSO) wells are included. The final concentration of DMSO in the culture medium is 2%. Each plate is prepared in duplicate (one for HBV DNA extraction, one for CellTiter-Glo 2.0 measurement). The cells are incubated at 37° C. and 5% CO2 for 3 days.
(§3) On day 4, cell viability is assessed using CellTiter-Glo 2.0 and cell lysates are prepared for HBV DNA extraction and subsequent quantification by qPCR.
Medium is removed from each well and 100 μL of 0.33% NP-40 in H2O was added to each well. Plates are sealed, incubated at 4° C. for 5 mins, vortexed extensively and centrifuged briefly. Next, 35 μL of lysate is added to 65 μL QuickExtract DNA Extraction Solution (Epicentre) in a PCR plate for each well. PCR plate is incubated at 65° C. for 6 mins, 98° C. for 2 mins and finally cooled to 4° C. HBV DNA is then quantified by qPCR with HBV-specific primers and probes as specified in Table 2 using the Bio-Rad SSOAdvanced Universal Probes Supermix on a CFX96 machine (Bio-Rad). The PCR cycle program consisted of 95° C. for 3 mins, followed by 40 cycles at 95° C. for 10 sec and 60° C. for 30 sec.
A DNA standard is prepared by dilution of an IDT gBlock corresponding to the amplicon with concentrations ranging from 10^2 to 10^8 copies/input (i.e., per 4 μL) and used to generate a standard curve by plotting Cq values vs. HBV DNA standard concentration. The quantity of HBV DNA in each sample is determined by interpolating from the standard curve.
(§4) Cell viability is calculated as follows: % Cell viability=(luminescence value of test sample)/(average luminescence value of 2% DMSO control)×100%. HBV DNA inhibition was calculated as follows: 100−(HBV DNA copy number of test sample)/(average HBV DNA copy number of 2% DMSO control)×100%. No normalization to entecavir is required due to the excellent dynamic window of this assay. The CC50, EC50 and EC90 values were determined by dose-response curves fitted using non-linear regression.

Data set [2] relates to HepG2.117 cells. The data set is described as follows: Cell viability by CellTiter-Glo 2.0 (intracellular ATP) in HepG2.117 cells. In kind it is cell-based. To be noted: CellTiter-Glo 2.0, HepG2.117 cells, 3 days incubation. As for the experimental part: as §1, §2, §3
(§5) Using the other plates, the cell viability is quantified by CellTiter-Glo 2.0 according to the manufacturer's manual. In brief, 100 μL of reagent solution is added to the culture plates and shaken for 2′. The plates are incubated at rt for 10 min and luminescence signal is subsequently measured on a VarioSkan Lux (ThermoFisher) plate reader.
as §4

Test in data set [3]: as above
In kind it is cell-based. To be noted: human, CellTiter-Glo 2.0, HepG2.117 cells, 3 days incubation. The method, then:
as §1, §2, §3, §5, §4
In general terms: In ATP-based viability assays light output follows the ATP content of the culture.

[4] abbreviates: HBV DNA inhibition, intracellular HBV DNA by qPCR, HepG2.117 cells, 3 days incubation, read-out: EC50.
The mark [5] stands for this setting: Hepatitis B virus, 72 h, HBV DNA inhibition, intracellular HBV DNA by qPCR, HepG2.117 cells, 3 days incubation, read-out: EC50.

SMILES strings stand for the structures. Where two headings read alike, the source gives them in different places.

Turning to `C=CC(C)Nc1nc2c(c(=O)n1-c1ccc(-c3[nH]nnc3C)cc1)C[C@@H](C)N(C(=O)c1ccc(Br)c(C(F)(F)F)c1)C2` (single isomer, unassigned) [Compound 3b], the half-maximal effective concentration (EC50) in data set [1] (setting [4]) was < 50 nM. For the same molecule, the CC50 in data set [2] was > 500 nM.
`C=C[C@H](C)Nc1nc2c(c(=O)n1-c1cc3ncn(C)c3cc1F)C[C@@H](C)N(C(=O)c1ccc(Br)c(C(F)(F)F)c1)C2` [Compound 32b, (R)-7-(4-bromo-3-(trifluoromethyl)benzoyl)-2-(((S)-but-3-en-2-yl)amino)-3-(6-fluoro-1-methyl-1H-benzo[d]imidazol-5-yl)-6-methyl-5,6,7,8-tetrahydropyrido[3,4-d]pyrimidin-4(3H)-one]: in data set [1] (setting [4]), the EC50 was < 50 nM. Besides, the CC50 in data set [2] is 21900 nM.
For the molecule `C=C[C@H](C)Nc1nc2c(c(=O)n1-c1ccc(C(=O)NC)cc1Cl)C[C@@H](C)N(C(=O)c1ccc(Br)c(C(F)(F)F)c1)C2` (atropisomer, axis not shown) [Compound 45, 4-[(6R)-7-[4-bromo-3-(trifluoromethyl)benzoyl]-6-methyl-2-[[(1S)-1-methylallyl]amino]-4-oxo-6,8-dihydro-5H-pyrido[3,4-d]pyrimidin-3-yl]-3-chloro-N-methyl-benzamide], the concentration for a half-maximal effect (EC50) in data set [1] (setting [4]) was < 50 nM. This molecule also came in with a CC50 in data set [2] of 30100 nM.
Consider `C=CC(C)Nc1nc2c(c(=O)n1-c1ccc(C(=O)NC)cc1)C[C@@H](C)N(C(=O)c1ccc(Br)c(C(F)(F)F)c1)C2` (single isomer, unassigned) [Compound 2b], for which the EC50 in data set [1] (setting [4]) is < 50 nM. Further, the half-maximal cytotoxic concentration (CC50) in data set [2] is > 500 nM.
As to `C=C[C@H](C)Nc1nc2c(c(=O)n1-c1ncc(C(=O)NC)cn1)C[C@@H](C)N(C(=O)c1ccc(Br)c(C(F)(F)F)c1)C2` [Compound 43, 2-[(6R)-7-[4-bromo-3-(trifluoromethyl)benzoyl]-6-methyl-2-[[(1S)-1-methylallyl]amino]-4-oxo-6,8-dihydro-5H-pyrido[3,4-d]pyrimidin-3-yl]-N-methyl-pyrimidine-5-carboxamide], the EC50 in data set [1] (setting [5]) was < 50 nM. For the same molecule, the CC50 at 3 days in data set [3] is > 50000 nM.
In the case of `C=C[C@H](C)Nc1nc2c(c(=O)n1-c1cc3ncn(C)c3cc1F)C[C@@H](C)N(C(=O)c1ccc(Br)c(C(F)(F)F)c1)C2` [Compound 32a, (R)-7-(4-bromo-3-(trifluoromethyl)benzoyl)-2-(((S)-but-3-en-2-yl)amino)-3-(6-fluoro-1-methyl-1H-benzo[d]imidazol-5-yl)-6-methyl-5,6,7,8-tetrahydropyrido[3,4-d]pyrimidin-4(3H)-one], the 50% effective concentration (EC50) in data set [1] (setting [5]) was < 50 nM. Half-maximal cytotoxicity in data set [3] (CC50 at 3 days) was put at 29500 nM.
Regarding `C=CCNc1nc2c(c(=O)n1-c1ccc(C(=O)NC)cc1)C[C@@H](C)N(C(=O)c1ccc(Br)c(C(F)(F)F)c1)C2` [Compound 5], the half-maximal effective concentration (EC50) in data set [1] (setting [5]) is < 50 nM. In addition, in data set [3], the CC50 at 3 days was > 50000 nM.
The corresponding values for `C=C[C@H](C)Nc1nc2c(c(=O)n1-c1cnc3c(ncn3C)n1)C[C@@H](C)N(C(=O)c1ccc(Br)c(C(F)(F)F)c1)C2` [Compound 46, (6R)-7-[4-bromo-3-(trifluoromethyl)benzoyl]-6-methyl-2-[[(1S)-1-methylallyl]amino]-3-(1-methylimidazo[4,5-b]pyrazin-5-yl)-6,8-dihydro-5H-pyrido[3,4-d]pyrimidin-4-one] are < 50 nM and > 50000 nM.
The corresponding values for `C=C[C@H](C)Nc1nc2c(c(=O)n1-c1ccc(C(=O)NC)cn1)C[C@@H](C)N(C(=O)c1ccc(Br)c(C(F)(F)F)c1)C2` [Compound 24, 6-((R)-7-(4-bromo-3-(trifluoromethyl)benzoyl)-2-(((S)-but-3-en-2-yl)amino)-6-methyl-4-oxo-5,6,7,8-tetrahydropyrido[3,4-d]pyrimidin-3(4H)-yl)-N-methylnicotinamide] are < 50 nM and > 500 nM.
Regarding `C=C[C@H](C)Nc1nc2c(c(=O)n1-c1ccc(-c3nnc(C)[nH]3)cc1)C[C@@H](C)N(C(=O)c1ccc(Br)c(C(F)(F)F)c1)C2` [Compound 4a, (R)-7-(4-bromo-3-(trifluoromethyl)benzoyl)-2-(((S)-but-3-en-2-yl)amino)-6-methyl-3-(4-(5-methyl-4H-1,2,4-triazol-3-yl)phenyl)-5,6,7,8-tetrahydropyrido[3,4-d]pyrimidin-4(3H)-one], the EC50 in data set [1] (Hepatitis B virus, HepG2.117, 72 h) was < 50 nM. In data set [3], the CC50 at 3 days was > 500 nM.
On to `C=C[C@H](C)Nc1nc2c(c(=O)n1-c1ccn3c(C)nnc3c1)C[C@@H](C)N(C(=O)c1ccc(Br)c(C(F)(F)F)c1)C2` [Compound 36, (6R)-7-[4-bromo-3-(trifluoromethyl)benzoyl]-6-methyl-2-[[(1S)-1-methylallyl]amino]-3-(3-methyl-[1,2,4]triazolo[4,3-a]pyridin-7-yl)-6,8-dihydro-5H-pyrido[3,4-d]pyrimidin-4-one], for which the 50% effective concentration (EC50) in data set [1] (setting [5]) is < 50 nM. In addition, the CC50 at 3 days in data set [3] was > 50000 nM.
`C=CC(C)Nc1nc2c(c(=O)n1-c1ccc(-c3[nH]nnc3C)cc1)C[C@@H](C)N(C(=O)c1ccc(Br)c(C(F)(F)F)c1)C2` (single isomer, unassigned) [Compound 3a]: the EC50 in data set [1] (setting [5]) is < 50 nM. The CC50 at 3 days in data set [3] was > 500 nM.
`C=C[C@H](C)Nc1nc2c(c(=O)n1-c1ccc(-c3cnn(C)c3)cn1)C[C@@H](C)N(C(=O)c1ccc(Br)c(C(F)(F)F)c1)C2` [Compound 37, (6R)-7-[4-bromo-3-(trifluoromethyl)benzoyl]-6-methyl-2-[[(1S)-1-methylallyl]amino]-3-[5-(1-methylpyrazol-4-yl)-2-pyridyl]-6,8-dihydro-5H-pyrido[3,4-d]pyrimidin-4-one]: in data set [1] (setting [5]), the EC50 is < 50 nM. For the same molecule, the CC50 at 3 days in data set [3] was > 50000 nM.
As for `C=C[C@H](C)Nc1nc2c(c(=O)n1-c1cc(F)c3c(c1)ncn3C)C[C@@H](C)N(C(=O)c1ccc(Br)c(C(F)(F)F)c1)C2` [Compound 48, (6R)-7-[4-bromo-3-(trifluoromethyl)benzoyl]-3-(7-fluoro-1-methyl-benzimidazol-5-yl)-6-methyl-2-[[(1S)-1-methylallyl]amino]-6,8-dihydro-5H-pyrido[3,4-d]pyrimidin-4-one], in data set [1] (setting [5]), the 50% effective concentration (EC50) was < 50 nM. Moreover, in data set [3], the midpoint of cytotoxicity, the CC50 at 3 days, lay at 26000 nM.
Turning to `C=C[C@H](C)Nc1nc2c(c(=O)n1-c1ccc(OC3CC3)cc1)C[C@@H](C)N(C(=O)c1ccc(Br)c(C(F)(F)F)c1)C2` [Compound 12, (R)-7-(4-bromo-3-(trifluoromethyl)benzoyl)-2-((S)-but-3-en-2-ylamino)-3-(4-cyclopropoxyphenyl)-6-methyl-5,6,7,8-tetrahydropyrido[3,4-d]pyrimidin-4(3H)-one], the 50% effective concentration (EC50) in data set [1] (setting [5]) is < 50 nM. Also, the cytotoxic concentration (CC50) at 3 days in data set [3] is > 50000 nM.
Turning to `C=CCN(C)c1nc2c(c(=O)n1-c1ccc(C(=O)NC)cc1)C[C@@H](C)N(C(=O)c1ccc(Br)c(C(F)(F)F)c1)C2` [Compound 6], the EC50 in data set [1] (setting [5]) was < 50 nM. In addition, the half-maximal cytotoxic concentration (CC50) at 3 days in data set [3] was > 500 nM.

Usually EC50 stands for the concentration that produces a half-maximal response. What is called CC50 is the concentration that lowers cell viability or growth by half.
